The source of these data is patent US8507562B2, “Synthesis of (1)-beta-elemene, (-)-beta-elemenal, (-)-beta-elemenol, (-)-beta-elemene fluoride and their analogues, intermediates, and composition and uses thereof” (HYWE Pharmaceuticals, Inc., priority 2004, dated 2013).

Data set [1] relates to A549 lung cancer. In words: MTT survival assay. The conditions noted are these: 2 × 10^4 cells/ml. For orientation: Tetrazolium dyes change colour on reduction, which living cells bring about.
A short description of data set [2]: Solubility comparison. Type of data set: physicochemical.
In data set [3] the test system is H-460 lung cancer. In words: MTT survival assay. Type of data set: cell-based, human.
The test system of data set [4] is CCL-2 (Hela) cervical cancer. The data set is described as follows: MTT survival assay. The format is cell-based, human. Conditions: read-out: Cisplatin IC50, combination: Elemene at IC20 of the cell line.
The subject of data set [5] is DU-145 prostate cancer. In words: MTT survival assay. The conditions noted are these: read-out: Cisplatin IC50, combination: Elemene at IC20 of the cell line. Type of data set: cell-based, human.
Data set [6] deals with H-69 lung cancer. The data set is described as follows: MTT survival assay. The conditions noted are these: read-out: Cisplatin IC50, combination: Elemene at IC20 of the cell line. Type of data set: cell-based, human.
Data set [7] relates to MCAS ovarian cancer. In words: MTT survival assay. Type of data set: cell-based, human. Conditions: read-out: Cisplatin IC50, combination: Elemene at IC20 of the cell line.
For data set [8], the system named is PC-3 prostate cancer. In words: MTT survival assay. Type of data set: cell-based, human. The conditions noted are these: read-out: Cisplatin IC50, combination: Elemene at IC20 of the cell line.
Data set [9] concerns U-87 brain tumor. In words: MTT survival assay. The conditions noted are these: read-out: Cisplatin IC50; U-87; combination: Elemene at IC20 of the cell line. Type of data set: cell-based, human.
The subject of data set [10] is A-172 brain tumor. The data set is described as follows: MTT survival assay. The format is cell-based, human. The conditions noted are these: read-out: Cisplatin IC50; A-172; combination: Elemene at IC20 of the cell line.
Data set [11] concerns Colon Cancer Cells Colo 205. The data set is described as follows: MTS cell viability assay. Conditions: Colo 205, drug alone.
Data set [12] deals with late-stage colorectal cancer. Conditions: enema twice a day for 10 days; Elemene 200 mg (17 patients), 5-FU 500 mg (14 patients); cited from earlier work.
For data set [13], the system named is Colon Cancer Cells HCT-15. The data set is described as follows: MTS cell viability assay. The conditions noted are these: combinations with Elemene 160 μg/ml, n = 8.
Data set [14] deals with Colon Cancer Cells Caco-2. The data set is described as follows: MTS cell viability assay. The format is cell-based, human. The conditions noted are these: combinations with Elemene 100 μg/ml, n = 8.
Data set [15] concerns Colon Cancer Cells HCT-116. In words: MTS cell viability assay. The format is cell-based, human. Conditions: combinations with Elemene 160 μg/ml, n = 8.
Data set [16] concerns SKOV3/CIS cells. Conditions: cited from earlier work.

Values after ≈ are worked out from the molar mass of the structure shown. Like-named read-outs stand apart in the source and are kept apart here.

For orientation: IC50 means the point on the concentration scale where inhibition reaches its midpoint. As to `C=C[C@]1(C)CC[C@@H](C(=C)CO)C[C@H]1C(=C)C` [(−)-beta-elemenol, (−)-Beta-elemenol], the 50% inhibitory concentration (IC50) in data set [1] (A549, 24 h) amounted to 74.0 µg/mL (≈ 336 µM); in data set [1] (A549, 48 h), 60.1 µg/mL (≈ 273 µM); in [1] (A549, 72 h), 81.0 µg/mL (≈ 368 µM); in data set [3] (H460, 24 h, 2 × 10^4 cells/ml) it was 111.0 µg/mL; in data set [3] (H460, 48 h, 2 × 10^4 cells/ml) it was 69.0 µg/mL; in data set [3] (H460, 72 h, 2 × 10^4 cells/ml) it was 74.5 µg/mL. The “solubility relative to (−)-beta-elemene” value in data set [2] is “more soluble than (−)-beta-elemene”.
Take `N.N.[Cl][Pt][Cl]` [Cisplatin]: the IC50 turned out to be 27.5 µM in data set [4]; 384 µM in data set [5]; 8 µM in [6]; 38 µM in [7]; 80 µM in [8]; 10 µM in [9]. The concentration for half-maximal inhibition (IC50) was determined as 24 µM in data set [10] and 80 µM in [3] (read-out: Cisplatin IC50, H-460, combination: Elemene at IC20 of the cell line).
Turning to `O=c1[nH]cc(F)c(=O)[nH]1` [Lr 5-Fu], the IC50 in data set [11] (Time 4 hr, n = 8) amounted to 117 ± 9.02 µg/mL (≈ 899 µM); in data set [11] (Time 4 hr/24 hr × 2, n = 8), 26.3 ± 5.34 µg/mL (≈ 202 µM); in data set [11] (Time 4 hr/24 hr × 3, n = 8), 11.6 ± 4.13 µg/mL (≈ 89.2 µM); in data set [11] (Time 4 hr/24 hr, n = 8), 34.6 ± 4.76 µg/mL (≈ 266 µM); in [11] (Time 8 hr, n = 8), 91.3 ± 5.62 µg/mL (≈ 702 µM); in data set [11] (Time 12 hr, n = 8), 36.7 ± 4.66 µg/mL (≈ 282 µM). Further, the IC50 was found to be 21.1 ± 6.06 µg/mL (≈ 162 µM) in data set [11] (Time 24 hr, n = 8); 13.2 ± 1.44 µg/mL (≈ 101 µM) in [11] (Time 48 hr, n = 8); 11.0 ± 1.60 µg/mL (≈ 84.6 µM) in [11] (Time 72 hr, n = 8); 40.0 ± 7.01 µg/mL in [13] (HCT-15, 4 hr/24 hr × 2); 28.4 ± 7.62 µg/mL in [13] (HCT-15, 4 hr/24 hr × 3); 80.0 ± 13.6 µg/mL in data set [13] (HCT-15, 4 hr/24 hr). Besides, the IC50 amounted to 68.1 ± 7.63 µg/mL in [13] (HCT-15, 8 hr); 52.1 ± 5.09 µg/mL in data set [13] (HCT-15, 12 hr); 18.4 ± 4.32 µg/mL in data set [13] (HCT-15, 48 hr); 7.95 ± 3.80 µg/mL in data set [13] (HCT-15, 72 hr); 17.0 ± 3.29 µg/mL in data set [14] (Caco-2, 4 hr/24 hr × 2); 13.8 ± 2.27 µg/mL in data set [14] (Caco-2, 4 hr/24 hr × 3). Besides, the IC50 in [14] (Caco-2, 4 hr/24 hr) was 28.8 ± 9.87 µg/mL; in data set [14] (Caco-2, 4 hr), 189 ± 27.1 µg/mL; in [14] (Caco-2, 8 hr) it was 102 ± 13.0 µg/mL; in data set [14] (Caco-2, 12 hr), 42.5 ± 9.84 µg/mL; in data set [14] (Caco-2, 24 hr), 23.9 ± 4.37 µg/mL; in [14] (Caco-2, 48 hr) it was 18.3 ± 2.83 µg/mL. Further, the IC50 came out at 12.6 ± 2.07 µg/mL in data set [14] (Caco-2, 72 hr); 42.7 ± 4.78 µg/mL in data set [15] (HCT-116, 4 hr/24 hr × 2); 22.4 ± 8.75 µg/mL in data set [15] (HCT-116, 4 hr/24 hr × 3); 85.1 ± 8.89 µg/mL in data set [15] (HCT-116, 4 hr/24 hr); 83.3 ± 12.1 µg/mL in data set [15] (HCT-116, 4 hr); 43.1 ± 13.1 µg/mL in [15] (HCT-116, 8 hr). Besides, the half-maximal inhibitory concentration (IC50) in data set [15] (HCT-116, 12 hr) was 21.7 ± 3.70 µg/mL; in data set [15] (HCT-116, 24 hr) it was 11.8 ± 2.54 µg/mL; in data set [15] (HCT-116, 48 hr), 7.4 ± 1.82 µg/mL; in [15] (HCT-116, 72 hr) it was 4.5 ± 0.74 µg/mL. Also, in data set [12], the CR entry is “CR: 57.1%”. In addition, the PR entry in data set [12] is given as “PR: 21.4%”.
For the compound `COc1ccc(CCN(C)CCCC(C#N)(c2ccc(OC)c(OC)c2)C(C)C)cc1OC` (stereo not shown) [Verapamil], the “enhancement of sensitivity to doxorubicin” value in data set [16] is recorded as 260 fold.
